Laboratory results taken from PMC3914206.

Experiments:
Assay type in all cases: binding
Conditions in all cases: Compound Concentration 10 µM
panel of 442 kinases [1] = biological target: T1, panel of 442 kinases (Homo sapiens, UniProt P10721, D816H)
T1 construct: purchased KINOMEscan
From the text: (§1) We assessed the selectivity of members of this scaffold using the KINOMEscan methodology across a near comprehensive panel of 442 kinases [[18,27]].

panel of 442 kinases [2] = biological target: T2, panel of 442 kinases (Homo sapiens, UniProt O15197)
T2 construct: purchased KINOMEscan
T2 sequence (O15197 32-1021): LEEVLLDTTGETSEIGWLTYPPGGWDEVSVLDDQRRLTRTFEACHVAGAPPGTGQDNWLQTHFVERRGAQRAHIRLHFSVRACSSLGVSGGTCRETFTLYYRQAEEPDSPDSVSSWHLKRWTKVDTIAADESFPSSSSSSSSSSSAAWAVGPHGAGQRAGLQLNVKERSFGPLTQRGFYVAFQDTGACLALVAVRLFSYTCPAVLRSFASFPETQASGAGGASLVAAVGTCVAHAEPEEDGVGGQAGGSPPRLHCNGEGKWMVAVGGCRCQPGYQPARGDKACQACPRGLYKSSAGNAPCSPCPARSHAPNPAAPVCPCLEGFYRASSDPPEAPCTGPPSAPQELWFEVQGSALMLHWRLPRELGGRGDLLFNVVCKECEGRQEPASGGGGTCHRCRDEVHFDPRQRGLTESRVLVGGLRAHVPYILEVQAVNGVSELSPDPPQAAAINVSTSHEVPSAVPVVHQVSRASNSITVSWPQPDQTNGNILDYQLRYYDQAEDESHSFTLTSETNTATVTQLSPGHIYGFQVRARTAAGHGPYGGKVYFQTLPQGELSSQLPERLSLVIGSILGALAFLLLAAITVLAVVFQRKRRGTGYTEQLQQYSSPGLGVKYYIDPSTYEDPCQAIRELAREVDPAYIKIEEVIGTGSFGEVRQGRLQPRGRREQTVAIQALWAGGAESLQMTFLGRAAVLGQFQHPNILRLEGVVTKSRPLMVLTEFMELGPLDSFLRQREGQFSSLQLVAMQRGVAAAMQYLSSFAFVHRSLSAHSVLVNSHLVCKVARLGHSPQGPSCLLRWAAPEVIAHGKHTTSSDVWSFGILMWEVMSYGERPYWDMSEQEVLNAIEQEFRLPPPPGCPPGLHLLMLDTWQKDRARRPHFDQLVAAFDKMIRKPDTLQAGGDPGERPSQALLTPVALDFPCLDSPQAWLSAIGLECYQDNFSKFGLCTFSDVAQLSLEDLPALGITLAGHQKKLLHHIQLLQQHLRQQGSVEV
From the text: as §1

panel of 442 kinases [3] = biological target: T3, panel of 442 kinases (Homo sapiens, UniProt Q00532)
T3 construct: purchased KINOMEscan
T3 sequence (Q00532 whole entry): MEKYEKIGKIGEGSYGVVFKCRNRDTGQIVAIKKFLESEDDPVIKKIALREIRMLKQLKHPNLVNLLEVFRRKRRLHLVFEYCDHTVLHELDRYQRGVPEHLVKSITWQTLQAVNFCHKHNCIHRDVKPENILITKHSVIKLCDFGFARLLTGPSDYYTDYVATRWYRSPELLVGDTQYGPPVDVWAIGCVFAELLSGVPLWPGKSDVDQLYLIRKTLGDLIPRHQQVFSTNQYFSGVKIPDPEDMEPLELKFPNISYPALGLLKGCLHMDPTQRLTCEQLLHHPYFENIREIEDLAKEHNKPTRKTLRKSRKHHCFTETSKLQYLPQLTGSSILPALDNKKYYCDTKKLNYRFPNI
From the text: as §1

T1 sequence (P10721 26-976 D816H): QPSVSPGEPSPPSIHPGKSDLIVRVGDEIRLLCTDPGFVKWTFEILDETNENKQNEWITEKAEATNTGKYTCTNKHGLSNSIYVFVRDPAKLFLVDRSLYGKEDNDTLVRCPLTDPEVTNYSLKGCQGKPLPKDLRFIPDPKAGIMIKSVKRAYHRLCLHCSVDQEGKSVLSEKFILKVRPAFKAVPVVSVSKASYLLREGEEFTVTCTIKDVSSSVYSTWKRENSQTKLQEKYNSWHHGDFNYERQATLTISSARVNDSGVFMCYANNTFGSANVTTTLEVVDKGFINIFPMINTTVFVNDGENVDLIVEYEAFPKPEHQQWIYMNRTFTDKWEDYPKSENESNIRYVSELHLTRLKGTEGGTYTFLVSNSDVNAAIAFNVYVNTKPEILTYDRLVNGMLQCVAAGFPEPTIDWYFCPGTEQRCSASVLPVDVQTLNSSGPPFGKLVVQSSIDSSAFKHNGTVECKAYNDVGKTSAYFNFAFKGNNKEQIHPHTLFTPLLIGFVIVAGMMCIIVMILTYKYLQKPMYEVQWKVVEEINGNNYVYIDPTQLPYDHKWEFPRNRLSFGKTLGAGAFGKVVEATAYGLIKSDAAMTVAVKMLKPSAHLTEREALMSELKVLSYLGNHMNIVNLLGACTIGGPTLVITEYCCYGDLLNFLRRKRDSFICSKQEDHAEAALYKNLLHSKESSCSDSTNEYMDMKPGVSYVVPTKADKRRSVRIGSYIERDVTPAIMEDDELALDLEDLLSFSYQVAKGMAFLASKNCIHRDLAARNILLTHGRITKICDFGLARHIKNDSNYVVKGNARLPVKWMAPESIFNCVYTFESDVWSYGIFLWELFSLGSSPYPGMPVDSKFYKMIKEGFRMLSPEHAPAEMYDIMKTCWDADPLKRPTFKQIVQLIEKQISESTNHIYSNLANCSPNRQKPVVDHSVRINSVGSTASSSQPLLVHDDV

SMILES: COc1cc(C(=O)N2CCC(N3CCN(C)CC3)CC2)ccc1Nc1ncc2c(n1)N(C1CCCC1)c1ccccc1C(=O)N2C [Compound 25, 11-cyclopentyl-2-((2-methoxy-4-(4-(4-methylpiperazin-1-yl)piperidine-1-carbonyl)phenyl)amino)-5-methyl-5H-benzo[e]pyrimido[5,4-b][1,4]diazepin-6(11H)-one]
- KINOMEscan: KIT(D816H) (panel of 442 kinases [1]): 100
- KINOMEscan: EPHB6 (panel of 442 kinases [2]): 69
- KINOMEscan: CDKL1 (panel of 442 kinases [3]): 100

SMILES: COc1cc(C(=O)N2CCC(N3CCN(C)CC3)CC2)ccc1Nc1ncc2c(n1)N1CCc3cccc(c31)C(=O)N2C [Compound 24]
- KINOMEscan: EPHB6 (panel of 442 kinases [2]): 68

SMILES: COc1cc(C(=O)N2CCC(N3CCN(C)CC3)CC2)ccc1Nc1ncc2c(n1)N(C)c1ccccc1C(=O)N2C [15 (LRRK2-IN-1)]
- KINOMEscan: KIT(D816H) (panel of 442 kinases [1]): 100
- KINOMEscan: EPHB6 (panel of 442 kinases [2]): 31
- KINOMEscan: CDKL1 (panel of 442 kinases [3]): 78

SMILES: CCOc1cc(C(=O)N2CCC(N3CCN(C)CC3)CC2)ccc1Nc1ncc2c(n1)N(C1CCCC1)c1ccccc1C(=O)N2C [Compound 26]
- KINOMEscan: KIT(D816H) (panel of 442 kinases [1]): 100
- KINOMEscan: EPHB6 (panel of 442 kinases [2]): 100
- KINOMEscan: CDKL1 (panel of 442 kinases [3]): 86
